This is an account of results in patent US4136192A, “4-Hydroxy-3-nitro (cyano) coumarins” (Beecham Group Limited, priority 1975, dated 1979).

In this experiment the test system is slow reacting substance of anaphylaxis (SRS-A). Description: SRS-A antagonism on isolated guinea pig ileum. Also noted: species or system guinea pig ileum (SRS-A from rat). Particulars: isolated guinea pig ileum strips, rat SRS-A, tyrode with atropine and mepyramine; 50% inhibition per method; read-out: SRS-A antagonism on Guinea Pig Ileum: Approximate concentration to give inhibition of a than maximal response to SRS-A. An excerpt:
The compounds have been evaluated as direct antagonists of slow reacting substance of anaphylaxis (SRS-A) by assay using the isolated guinea pig ileum.
SRS-A rat was obtained from the peritoneal cavity of the rat after passive peritoneal anaphylaxis by a method based on that of R. P. Orange, D. J. Stechschulte and K. F. Austen, J. Immunology, 105 1087 (1970) as described by B. A. Spicer, J. W. Ross and H. Smith, Clin. exp. Immunol. 1975, 21, 419. The sensitizing serum containing reaginic antibody was produced in rats as described by B. A. Spicer, et. al. ibid.
2 ml of a 1 in 5 dilution of the sensitizing serum was injected by the peritoneal route into recipient rats and after 2 hours, 5 ml of tyrode solution containing 0.4 mg/ml ovalbumin (Sigma Grade III) and 50 μg/ml heparin was injected by the same route. Five minutes after challenge the rats were stunned and bled and the peritoneal fluids collected into polycarbonate tubes in ice. After centrifugation at 150 g for 5 minutes the supernatants were combined, heated in a boiling water bath for 5 minutes, cooled and stored at -20° C. The combined peritioneal fluids contained SRS-A and were used in the antagonism studies.
The SRS-A assays were carried out on isolated strips of guinea pig ileum in tyrode solution containing atropine 5 × 10^-7 M and mepyramine 10^-6 M as described by W. E. Brocklehurst, J. Physiology, 151, 416 (1960).
The activity of the antagonists was determined by their ability to reduce submaximal responses induced by SRS-A. The antagonists were added to a 4 ml bath in 0.1 ml volumes in aqueous solution half a minute before the addition of SRS-A and were present during induced contraction. Two or three concentrations of antagonists were used and the percentage inhibition of the SRS-A response plotted against the bath concentration of antagonist. The line of best fit was drawn and the concentration to cause 50% inhibition IC50 read graphically.

Turning to `CCCc1c(OCC(O)COc2ccc3c(O)c([N+](=O)[O-])c(=O)oc3c2)ccc(C(C)=O)c1O` (stereo not drawn) [Example 114, 7-(3-[4-Acetyl-3-hydroxy-2-n-propylphenoxy]-2-hydroxypropoxy)-4-hydroxy-3-nitrocoumarin], the IC50 amounted to 10 nM. To `O=c1oc2ccc(OCCc3ccccc3)cc2c(O)c1[N+](=O)[O-]` [Example 115, 4-Hydroxy-3-nitro-6-(2-phenylethoxy) coumarin] belongs 10000 nM. Consider `O=c1oc2cc(OCCc3ccccc3)ccc2c(O)c1[N+](=O)[O-]` [Example 116, 4-Hydroxy-3-nitro-7-(2-phenylethoxy) coumrin], for which the IC50 turned out to be 1000 nM. To `O=c1oc2ccc(OCCCc3ccccc3)cc2c(O)c1[N+](=O)[O-]` [Example 118, 4-Hydroxy-3-nitro-6-(3-phenylpropoxy) coumarin] belongs 1000 nM; to `O=c1oc2cc(OCCCc3ccccc3)ccc2c(O)c1[N+](=O)[O-]` [Example 119, 4-Hydroxy-3-nitro-7-(3-phenylpropoxy) coumarin], 1000 nM.

`CC(=O)c1ccc(CCCOc2ccc3c(O)c([N+](=O)[O-])c(=O)oc3c2)cc1` [Example 120, 7-(3-[4-Acetylphenyl]propoxy)-4-hydroxy-3-nitrocoumarin]: the IC50 came out at 1000 nM. As to `O=c1oc2cc(OCCCCc3ccccc3)ccc2c(O)c1[N+](=O)[O-]` [Example 121, 4-Hydroxy-3-nitro-7-(4-phenylbutoxy) coumarin], the IC50 amounted to 1000 nM. Under `O=c1oc2cc(OCCCCc3ccc(Cl)cc3)ccc2c(O)c1[N+](=O)[O-]` [Example 122, 7-(4-[4-Chlorophenyl]butoxy)-4-hydroxy-3-nitrocoumarin] stands 1000 nM; under `Cc1ccc(CCCCOc2ccc3c(O)c([N+](=O)[O-])c(=O)oc3c2)cc1` [Example 123, 4-Hydroxy-7-(4-[4-methylphenyl]butoxy)-3-nitrocoumarin], 1000 nM; under `O=c1oc2ccc(OCCOc3ccccc3)cc2c(O)c1[N+](=O)[O-]` [Example 125, 4-Hydroxy-3-nitro-6-(2-phenoxyethoxy) coumarin], 10000 nM. `O=c1oc2cc(OCCOc3ccccc3)ccc2c(O)c1[N+](=O)[O-]` [Example 126, 4-Hydroxy-3-nitro-7-(2-phenoxyethoxy) coumarin]: the IC50 was 10000 nM. As to `O=c1oc2ccc(OCCCOc3ccccc3)cc2c(O)c1[N+](=O)[O-]` [Example 128, 4-Hydroxy-3-nitro-6-(3-phenoxypropoxy) coumarin], the IC50 stood at 1000 nM.

For the compound `O=c1oc2cc(OCCCOc3ccccc3)ccc2c(O)c1[N+](=O)[O-]` [Example 129, 4-Hydroxy-3-nitro-7-(3-phenoxypropoxy) coumarin], the IC50 came to 1000 nM. To `Cc1cc(OCCCOc2ccccc2)cc2oc(=O)c([N+](=O)[O-])c(O)c12` [Example 130, 4-Hydroxy-5-methyl-3-nitro-7-(3-phenoxypropoxy)] belongs 1000 nM. Under `CCCc1c(OCCCOc2ccccc2)ccc2c(O)c([N+](=O)[O-])c(=O)oc12` [Example 131, 4-Hydroxy-3-nitro-7-(3-phenoxy-propoxy) 8-n-propylcoumarin] stands 1000 nM; under `CCc1cc2c(O)c([N+](=O)[O-])c(=O)oc2cc1OCCCOc1ccccc1` [Example 132, 6-Ethyl-4-hydroxy-3-nitro-7-(3-phenoxy-propoxy) coumarin], 10000 nM; under `O=c1oc2cc(OCCCOc3ccc(Cl)cc3)ccc2c(O)c1[N+](=O)[O-]` [Example 133, 7-(3-[4-Chlorophenoxy]propxy-4-hydroxy-3-nitrocoumarin], 1000 nM. In the case of `O=C(O)c1ccc(OCCCOc2ccc3c(O)c([N+](=O)[O-])c(=O)oc3c2)cc1` [Example 134, 7-(3-[4-Carboxyphenoxy]propoxy)-4-hydroxy-3-nitrocoumarin], the IC50 came out at 10000 nM. `COC(=O)c1ccc(OCCCOc2ccc3c(O)c([N+](=O)[O-])c(=O)oc3c2)cc1` [Example 135, 7-(3-[4-Carbomethoxyphenoxy]propoxy)-4-hydroxy-3-nitrocoumarin]: the IC50 was determined as 10000 nM. Under `CC(=O)c1ccc(OCCCOc2ccc3c(O)c([N+](=O)[O-])c(=O)oc3c2)cc1` [Example 136, 7-(3-[4-Acetylphenoxy]propoxy)-4-hydroxy-3-nitrocoumarin] stands 1000 nM; under `Cc1ccc(OCCCOc2ccc3c(O)c([N+](=O)[O-])c(=O)oc3c2)c([N+](=O)[O-])c1` [Example 137, 4-Hydroxy-7-(3-[4-methyl-2-nitrophenoxy]propoxy)-3-nitrocoumarin], 10000 nM; under `CC(=O)c1ccc(OCCCOc2ccc3c(O)c([N+](=O)[O-])c(=O)oc3c2)cc1O` [Example 138, 7-(3-[4-Acetyl-3-hydroxyphenoxy]propoxy)-4-hydroxy-3-nitrocoumarin], 1000 nM. Turning to `CCCc1c(OCCCOc2ccc3c(O)c([N+](=O)[O-])c(=O)oc3c2)ccc(C(C)=O)c1O` [Example 139, 7-(3-[4-Acetyl-3-hydroxy-2-n-propylphenoxy]propoxy)-4-hydroxy-3-nitrocoumarin], the IC50 stood at 100 nM. For `O=C(O)c1ccc(OCC(O)COc2ccc3c(O)c([N+](=O)[O-])c(=O)oc3c2)cc1` (stereo not drawn) [Example 140, 7-(3-[4-Carboxyphenoxy]-2-hydroxy-propoxy)-4-hydroxy-3-nitrocoumarin], the IC50 is 10000 nM. To `O=c1oc2cc(OCC(O)COc3ccccc3)ccc2c(O)c1[N+](=O)[O-]` (stereo not drawn) [Example 141, 4-Hydroxy-7-(2-hydroxy-3-phenoxypropoxy)-3-nitrocoumarin] belongs 10000 nM; to `CC(=O)c1ccc(OCC(O)COc2ccc3c(O)c([N+](=O)[O-])c(=O)oc3c2)cc1O` (stereo not drawn) [Example 143, 7-(3-[4-Acetyl-3-hydroxyphenoxy]2-hydroxypropoxy)-4-hydroxy-3-nitrocoumarin], 10000 nM; to `CC(=O)c1ccc(OCC(O)COc2ccc3c(O)c([N+](=O)[O-])c(=O)oc3c2)c(C)c1O` (stereo not drawn) [Example 144, 7-(3-[4-Acetyl-3-hydroxy-2-methyl-phenoxy]-2-hydroxy-propoxy)-4-hydroxy-3-nitrocoumarin], 100 nM. With `O=c1oc2cc(OCCCCOc3ccccc3)ccc2c(O)c1[N+](=O)[O-]` [Example 150, 4-Hydroxy-3-nitro-7-(4-phenoxybutoxy)-coumarin], the IC50 was found to be 1000 nM. Under `O=c1oc2ccc(OCCCCCOc3ccccc3)cc2c(O)c1[N+](=O)[O-]` [Example 151, 4-Hydroxy-3-nitro-6-(5-phenoxypentoxy)-coumarin] stands 1000 nM. To `O=c1oc2cc(OCCCCCOc3ccccc3)ccc2c(O)c1[N+](=O)[O-]` [Example 152, 4-Hydroxy-3-nitro-7-(5-phenoxypentoxy)-coumarin] belongs 1000 nM. To `O=c1oc2ccc(OCCCCCCOc3ccccc3)cc2c(O)c1[N+](=O)[O-]` [Example 153, 4-hydroxy-3-nitro-6-(6-phenoxyhexoxy) coumarin] belongs 100 nM. As for `Cc1cccc(OCCCOc2ccc3c(O)c([N+](=O)[O-])c(=O)oc3c2)c1` [Example 156, 4-Hydroxy-7-(3-[3-methylphenoxy]propoxy)-3-nitrocoumarin], the IC50 amounted to 1000 nM. Take `Cc1ccc(OCCCOc2ccc3c(O)c([N+](=O)[O-])c(=O)oc3c2)cc1` [Example 157, 4-Hydroxy-7-(3-[4-methylphenoxy]propoxy)-3-nitrocoumarin]: the IC50 was 1000 nM.

Turning to `COc1ccc(OCCCOc2ccc3c(O)c([N+](=O)[O-])c(=O)oc3c2)cc1` [Example 158, 4-Hydroxy-7-(3-[4-methoxyphenoxy]propoxy)-3-nitrocoumarin], the IC50 is 1000 nM. Under `O=c1oc2cc(OCCCOc3ccc(F)cc3)ccc2c(O)c1[N+](=O)[O-]` [Example 159, 7-(3-[4-Fluorophenoxy]propoxy)-4-hydroxy-3-nitrocoumarin] stands 100 nM; under `N#Cc1ccc(OCCCOc2ccc3c(O)c([N+](=O)[O-])c(=O)oc3c2)cc1` [Example 160, 7-(3[4-Cyanophenoxy]-propoxy)-4-hydroxy-3-nitrocoumarin], 10000 nM; under `O=c1oc2cc(OCCCOc3ccc(-c4ccccc4)cc3)ccc2c(O)c1[N+](=O)[O-]` [Example 161, 4-Hydroxy-7-(3-[4-phenylphenoxy]propoxy)-3-nitro-coumarin], 10000 nM. Under `O=c1oc2cc(OCCCOc3ccc4c(c3)CCCC4)ccc2c(O)c1[N+](=O)[O-]` [Example 162, 4-Hydroxy-3-nitro-7-(3-[5,6,7,8-tetrahydro-2-naphthyloxy]propoxy) coumarin] stands 10000 nM; under `CCCc1ccccc1OCC(O)COc1ccc2c(O)c([N+](=O)[O-])c(=O)oc2c1` (stereo not drawn) [Example 163, 4-Hydroxy-7-(2-hydroxy3-[2-n-propylphenoxy]propoxy)-3-nitro-coumarin], 100 nM.
